Experiments:
[1] = test system: antibodies in sera from SARS patients (sera 1a, 1b, 2, 6, 37, 62, London, SARS-yellow, SARS-green); assay type: binding, human; parameters: Binding of serum 6 to linear peptides of protein X1 of SARS-CoV Urbani / Binding of serum 37 to linear peptides of protein X1 of SARS-CoV Urbani / Binding of serum 6 to looped/cyclic peptide (PEPSCAN-ELISA) / Binding of serum 37 to looped/cyclic peptide (PEPSCAN-ELISA) / Binding of serum 37 to looped/cyclic peptides of protein X1 of SARS-CoV Urbani / Binding of serum 6 to linear peptides of protein X2 / Binding of serum 37 to linear peptides of protein X2 / Binding of serum 37 to looped/cyclic peptides of protein X2 of SARS-CoV Urbani / Binding of serum 6 to linear peptides of protein M of SARS-CoV Urbani / Binding of serum 37 to linear peptides of protein M of SARS-CoV Urbani / Binding of serum 6 to looped/cyclic peptides of protein M of SARS-CoV Urbani / Binding of serum 37 to looped/cyclic peptides of protein M of SARS-CoV Urbani / Binding of serum 6 to linear peptides of protein X3 of SARS-CoV Urbani / Binding of serum 37 to linear peptides of protein X3 of SARS-CoV Urbani / Binding of serum 37 to looped/cyclic peptides of protein X3 of SARS-CoV Urbani / Binding of serum 6 to linear peptides of protein X4 of SARS-CoV Urbani / Binding of serum 37 to linear peptides of protein X4 of SARS-CoV Urbani / Binding of serum 37 to looped/cyclic peptides of protein X4 of SARS-CoV Urbani / Binding of serum 6 to linear peptides of protein X5 of SARS-CoV Urbani / Binding of serum 37 to linear peptides of protein X5 of SARS-CoV Urbani / Binding of serum 37 to looped/cyclic peptides of protein X5 of SARS-CoV Urbani / Binding of serum 6 to linear peptides of protein N of SARS-CoV Urbani / Binding of serum 37 to linear peptides of protein N of SARS-CoV Urbani / Binding of serum 6 to linear peptide (PEPSCAN-ELISA) / Binding of serum 1a to looped/cyclic peptides of protein N of SARS-CoV Urbani / Binding of serum 1b to looped/cyclic peptides of protein N of SARS-CoV Urbani / Binding of serum 2 to looped/cyclic peptides of protein N of SARS-CoV Urbani / Binding of serum 6 to looped/cyclic peptides of protein N of SARS-CoV Urbani / Binding of serum 37 to looped/cyclic peptides of protein N of SARS-CoV Urbani / Binding of serum 62 to looped/cyclic peptides of protein N of SARS-CoV Urbani / Binding of serum London to looped/cyclic peptides of protein N of SARS-CoV Urbani / Binding of serum SARS-green to looped/cyclic peptides of protein N of SARS-CoV Urbani: unit not given here
[2] = test system: rabbit serum obtained by immunizing a rabbit with the SARS-CoV strain Frankfurt 1; assay type: binding; parameters: Binding of a rabbit serum to linear peptides / Binding of a rabbit serum to looped peptides / Rabbit serum linear peptides / Rabbit serum looped peptides / Binding of a rabbit serum to linear peptides of protein N of SARS-CoV Urbani (Rabbit serum linear peptides) / Binding of a rabbit serum to looped/cyclic peptides of protein N of SARS-CoV Urbani (Rabbit serum looped peptides): unit not given here
[3] = test system: control sera (pooled serum of ten healthy LUMC hospital workers; commercial negative donor pooled serum from the Dutch bloodbank); assay type: binding, human; parameters: Binding of Control serum LUMC to linear peptides / Binding of Control serum Blood-bank to linear peptides / Binding of Control serum LUMC to looped peptides / Binding of Control Serum Blood-Bank to Looped peptides / Binding of Control serum LUMC to linear peptides of the protein M of SARS-CoV Urbani / Binding of Control serum Blood-bank to linear peptides of the protein M of SARS-CoV Urbani / Binding of Control serum LUMC to looped peptides of the protein M of SARS-CoV Urbani / Binding of Control Serum Blood-Bank to Looped peptides of the protein M of SARS-CoV Urbani: unit not given here

Row | Sequence | Binding of serum 1a to linear peptides of protein E of SARS-CoV Urbani [1] | Binding of serum 1a to looped/cyclic peptides of protein E of SARS-CoV Urbani [1] | Binding of serum 1b to linear peptides of protein E of SARS-CoV Urbani [1] | Binding of serum 1b to looped/cyclic peptides of protein E of SARS-CoV Urbani [1] | Binding of serum 2 to linear peptides of protein E of SARS-CoV Urbani [1] | Binding of serum 2 to looped/cyclic peptides of protein E of SARS-CoV Urbani [1] | Binding of serum 6 to linear peptides of protein E of SARS-CoV Urbani [1] | Binding of serum 6 to looped/cyclic peptides of protein E of SARS-CoV Urbani [1] | Binding of serum 37 to linear peptides of protein E of SARS-CoV Urbani [1] | Binding of serum 37 to looped/cyclic peptides of protein E of SARS-CoV Urbani [1] | Binding of serum 62 to looped/cyclic peptides of protein E of SARS-CoV Urbani [1] | Binding of serum London to looped/cyclic peptides of protein E of SARS-CoV Urbani [1] | Binding of serum SARS-green to looped/cyclic peptides of protein E of SARS-CoV Urbani [1] | Binding of serum SARS-yellow to looped/cyclic peptides of protein E of SARS-CoV Urbani [1] | Binding of a rabbit serum to linear peptides [2] | Binding of a rabbit serum to looped peptides [2] | Binding of Control Serum Blood-Bank to Looped peptides [3] | Binding of Control serum Blood-bank to linear peptides [3] | Binding of Control serum LUMC to linear peptides [3] | Binding of Control serum LUMC to looped peptides [3] | other results
1 | SFVSEETGTLIVNSV | 0.9 | 0.5 | 0.7 | 0.4 | 0.6 | 0.5 | 0.6 | 0.4 | 0.8 | 0.6 | 0.7 | 0.5 | 0.4 | 0.7 | 0.5 | 0.1 | 0.7 | 0.9 | 0.6 | 0.7 | Binding of serum 62 to linear peptides of protein E of SARS-CoV Urbani [1]: 0.8; Binding of serum London to linear peptides of protein E of SARS-CoV Urbani [1]: 0.5; Binding of serum SARS-green to linear peptides of protein E of SARS-CoV Urbani [1]: 0.5; Binding of serum SARS-yellow to linear peptides of protein E of SARS-CoV Urbani [1]: 0.1
2 | TGTLIVNSVLLFLAF | – | 0.4 | – | 0.3 | – | 0.4 | – | 0.3 | – | 0.3 | 0.6 | 0.3 | 0.2 | 0.4 | 0.5 | 0.0 | 0.4 | 0.6 | 0.3 | 0.5 | –
3 | TLAILTALRLCAYCC | 0.8 | 0.7 | 0.9 | 0.6 | 0.3 | 0.7 | 0.6 | 0.7 | 0.7 | 0.7 | 0.7 | 0.5 | 0.5 | 0.9 | 0.7 | 0.4 | 0.7 | 0.6 | 0.4 | 0.8 | Binding of serum 62 to linear peptides of protein E of SARS-CoV Urbani [1]: 0.7; Binding of serum London to linear peptides of protein E of SARS-CoV Urbani [1]: 0.5; Binding of serum SARS-green to linear peptides of protein E of SARS-CoV Urbani [1]: 0.5; Binding of serum SARS-yellow to linear peptides of protein E of SARS-CoV Urbani [1]: 0.2
4 | VAALVFLILCFTIKR | – | – | – | – | – | – | – | – | – | – | – | – | – | – | – | – | 0.8 | 0.5 | 0.4 | 0.6 | Binding of serum 1a to linear peptides of protein X4 of SARS-CoV Urbani [1]: 0.6; Binding of serum 1a to looped/cyclic peptides of protein X4 of SARS-CoV Urbani [1]: 0.8; Binding of serum 1b to linear peptides of protein X4 of SARS-CoV Urbani [1]: 0.5; Binding of serum 1b to looped/cyclic peptides of protein X4 of SARS-CoV Urbani [1]: 0.4; Binding of serum 2 to linear peptides of protein X4 of SARS-CoV Urbani [1]: 0.4; Binding of serum 2 to looped/cyclic peptides of protein X4 of SARS-CoV Urbani [1]: 0.7; Binding of serum 6 to linear peptides of protein X4 of SARS-CoV Urbani [1]: 0.5; Binding of serum 6 to looped/cyclic peptides of protein X4 of SARS-CoV Urbani [1]: 0.6; Binding of serum 37 to linear peptides of protein X4 of SARS-CoV Urbani [1]: 0.7; Binding of serum 37 to looped/cyclic peptides of protein X4 of SARS-CoV Urbani [1]: 0.7; Binding of serum 62 to linear peptides of protein X4 of SARS-CoV Urbani [1]: 0.7; Binding of serum 62 to looped/cyclic peptides of protein X4 of SARS-CoV Urbani [1]: 0.7; Binding of serum London to linear peptides of protein X4 of SARS-CoV Urbani [1]: 0.6; Binding of serum London to looped/cyclic peptides of protein X4 of SARS-CoV Urbani [1]: 0.3; Binding of serum SARS-green to linear peptides of protein X4 of SARS-CoV Urbani [1]: 0.5; Binding of serum SARS-green to looped/cyclic peptides of protein X4 of SARS-CoV Urbani [1]: 0.4; Binding of serum SARS-yellow to linear peptides of protein X4 of SARS-CoV Urbani [1]: 0.5; Binding of serum SARS-yellow to looped/cyclic peptides of protein X4 of SARS-CoV Urbani [1]: 0.5; Rabbit serum linear peptides [2]: 0.5; Rabbit serum looped peptides [2]: 0.6

Reference: patent publication US20070128217A1 (priority 2003, published 2007)
